Legend:
Assay type in all cases: in vivo
[1] = tested on: tetranychus telarius Linnaeus; assay: Laboratory toxicity test against tetranychus telarius Linnaeus (Pasting Method); conditions: for LC50 / LC90: mature female mites, glass slide immersion 5 seconds, time 24 (hour); for times as toxic as compound I against tetranychus telarius Linnaeus: relative to compound I, from Table 1
Description: 1. Laboratory toxicity test against tetranychus telarius Linnaeus
(1) Method of manipulation: (Pasting Method)
Take the robust mature female mites, and paste the back of the mite on a piece of glass with a transparent adhesive tape. Every piece of glass pasted with 40 mites, and three pieces of glasses for each concentration, each insecticide repeated three times at five concentration. […] Immerse the above glasses in a insecticidal solution of specified concentration for 5 seconds and take out from the solution. Use a piece of absorbent paper to absorb the surplus insecticidal solution, transfer the above treated glasses to a culture dish previously fitted with a wetted cotton wool. […] Standard for death judgement: use a needle to move the body of the mite, wholly inflexible judged as death.

wheat aphid = assay: Laboratory toxicity test against wheat aphid (Topic application method); conditions: for times as toxic as compound I against wheat aphid: relative to compound I, from Table 2; for LD50: third instar larva, topical 0.083 μl in acetone, 27° C., 48 hours
Experimental: (§1) 2. Laboratory toxicity test against wheat aphid (1) Method of manipulation (Topic application method) Weigh third instar larva on a swift electronic balance to obtain 8-18 mg/larva, and 0.083 μl of the insecticide solution in acetone at specified concentration with a microsyringe to the dorsal thorax of the larva, and then transfer the larva into a finger-type tube charged with artificial fodder, each tube for one larva, each concentration for 30 tubes, each insecticide run at 5 concentrations, and repeat 3 times. Place the tubes in a thermostat oven at 27° C. for 48 hours, and inspect the number of dead larva. Standard for death judgement: judge the wholly inflexible test aphid as death.

[2] = tested on: tetranychus telarius Linnaeus and wheat aphid; assay: Overall comparison of efficacy and dosage with compound I from Tables 1 and 2; conditions: Tables 1 and 2, in words
Description: Take the robust mature female mites, and paste the back of the mite on a piece of glass with a transparent adhesive tape. Every piece of glass pasted with 40 mites, and three pieces of glasses for each concentration, each insecticide repeated three times at five concentration. […] Immerse the above glasses in a insecticidal solution of specified concentration for 5 seconds and take out from the solution. Use a piece of absorbent paper to absorb the surplus insecticidal solution, transfer the above treated glasses to a culture dish previously fitted with a wetted cotton wool. The culture dish is kept in a thermostat oven at 28° C. for 48 hours, and inspect the number of dead mites under binocular dissecteined microscope. Standard for death judgement: use a needle to move the body of the mite, wholly inflexible judged as death.
as §1, with “Weigh” for “2. Laboratory toxicity test against wheat aphid (1) Method of manipulation (Topic application method) Weigh”
The compound A and Ib are 2.11 times and 1.78 times as toxic as compound I against tetranychus telarius Linnaeus, and are 1.95 times and 1.88 times as toxic as compound I against wheat aphid respectively. Therefore compound Ia has the preferred effect, and the dosage needed is the lowest; the next one are A and compound Ib.

For `CC(C)[C@H](C(=O)O[C@H](C#N)c1cccc(Oc2ccc(Br)cc2)c1)c1ccc(OC(F)F)cc1` (relative stereo) [A], the LC50 [1] was 10 ppm, the LC90 [1] was 110 ppm and the “times as toxic as compound I against tetranychus telarius Linnaeus” value (shortened to “times … against tetranychus telarius Linnaeus”) [1] was 2.11 times. For the same compound, the “times as toxic as compound I against wheat aphid” value (“times … against wheat aphid” for short) (wheat aphid) was 1.95 times, the LD50 (wheat aphid) was 0.0003712 μg/larva and the “dosage compared with compound I” value [2] was “lower than that of compound I”. For the same compound, the “efficacy compared with compound I” value [2] was “apparently better than compound I”.
Compound `CC(C)[C@@H](C(=O)O[C@@H](C#N)c1cccc(Oc2ccc(Br)cc2)c1)c1ccc(OC(F)F)cc1` [Id, (R)-α-Cyano-3-(4-bromophenoxy)benzyl (R)-2-(4-difluoromethoxyphenyl)-3-methylbutyrate] has an LC50 [1] of 1200 ppm, an LC90 [1] of 8000 ppm and an LD50 (wheat aphid) of 0.05047 μg/larva.
`CC(C)[C@H](C(=O)O[C@@H](C#N)c1cccc(Oc2ccc(Br)cc2)c1)c1ccc(OC(F)F)cc1` [Ib, (R)-α-Cyano-3-(4-bromophenoxy)benzyl-(S)-2-(4-difluoromethoxyphenyl)-3-methylbutyrate] was tested, and the LC50 [1] was 12 ppm, the LC90 [1] was 130 ppm and the “times … against tetranychus telarius Linnaeus” value [1] was 1.78 times. The “times … against wheat aphid” value (wheat aphid) was 1.88 times, the LD50 (wheat aphid) was 0.000385 μg/larva and the “dosage compared with compound I” value [2] was “lower than that of compound I”. The “efficacy compared with compound I” value [2] was “apparently better than compound I”.
In the case of `CC(C)[C@H](C(=O)O[C@H](C#N)c1cccc(Oc2ccc(Br)cc2)c1)c1ccc(OC(F)F)cc1` [Ia, (S)-α-Cyano-3-(4-bromophenoxy)benzyl-(S)-2-(4-difluoromethoxyphenyl)-3-methylbutyrate], the LC50 [1] is reported as 4 ppm, the LC90 [1] is reported as 52 ppm and the “times … against tetranychus telarius Linnaeus” value [1] is reported as 4.46 times. The “times … against wheat aphid” value (wheat aphid) was 4.06 times, the LD50 (wheat aphid) was 0.0001783 μg/larva and the “dosage compared with compound I” value [2] was “lower than that of compound I”. For the same compound, the “efficacy compared with compound I” value [2] was “apparently better than compound I”.
In the case of `CC(C)C(C(=O)OC(C#N)c1cccc(Oc2ccc(Br)cc2)c1)c1ccc(OC(F)F)cc1` (stereo not drawn) [compound I, α-cyano-3-(4-bromophenoxy) benzyl-2-(4-difluoromethoxyphenyl)-3-methylbutyrate, reference compound], the LC50 [1] is reported as 19 ppm, the LC90 [1] is reported as 232 ppm and the LD50 (wheat aphid) is reported as 0.0007247 μg/larva.
With `CC(C)[C@@H](C(=O)O[C@H](C#N)c1cccc(Oc2ccc(Br)cc2)c1)c1ccc(OC(F)F)cc1` [Ic] the LC50 [1] was 220 ppm, the LC90 [1] was 2580 ppm and the LD50 (wheat aphid) was 0.009252 μg/larva.

From patent US5886207A, “Optically active compound of flubrocythrinate, a process for preparing the same” (Shanghai Zhongxi Pharmaceutical Co. Ltd., priority 1994, dated 1999)
